What was measured:
Lepr^db/db mice = assay: Chronic treatment: fasting blood glucose and HbA1c in Lepr^db/db mice; assay type: in vivo, mouse
Experimental: Male Lepr^db/db mice at 38 days of age were intraperitoneally (ip) injected daily with physiological saline ([…]) containing 0.2% DMSO, Compound #C, Compound #50, Compound #68, and/or Compound #43 (25 μg selenium or sulfur equivalents of each compound per kilogram body weight, diluted in sterile physiological saline) for periods ranging from 43-90 days. Body weights of the above treated mice were recorded daily using a balance and any visible abnormal animal gross morphology and walking behavior were monitored daily. After the treatments, animals were fasted overnight and then subjected to blood glucose or HbA1c assays, glucose tolerance tests or tissue collections.
For comparative studies of any potential anti-diabetic effects of Compounds #43, #69 and #70, male Lepr^db/db mice at 41 days of age were intraperitoneally (ip) injected daily with physiological saline ([…]) containing 0.2% DMSO, Compound #43, Compound #69, or Compound #70 (25 μg selenium of each compound per kilogram body weight, diluted in sterile physiological saline). After the treatments for 43 days, animals were fasted overnight and then subjected to blood glucose and glucose tolerance tests. After daily treatments of these compounds for 90 days, sera from these animals were collected and then subjected to blood HbA1c assays.
After treatment with physiological saline or compounds or after the injection of a bolus of glucose, a small drop of blood from each mouse was collected by snipping the mouse tail tip. Blood glucose levels were determined using a Glucometer with a maximum capability for glucose measurement of 600 mg/dL.
After saline or compound treatments, a small drop of blood from the mouse tail was collected in an EDTA-coated eppendorf tube (to prevent blood coagulation) (Fisher Scientific), and then subjected to a HbA1c assay using the Crystal Chem's or Kamiya's mouse glycated hemoglobin A1c ELISA kit, according to the manufacturer's protocol. Also after the final treatments, mouse serum was collected and subjected to HbA1c assay using the Kamiya Biomeidcal Company's mouse HbA1c kit, according to the manufacturer's protocol.

Insrβ = target: T1, Insrβ (Mus musculus, UniProt P15208); assay: Western blot of Insrβ phosphorylation in skeletal muscle of Lepr^db/db mice; assay type: in vivo; conditions: 0.136 mg/kg ip daily
T1 construct: gastrocnemius skeletal muscle and liver samples were collected and stored at −80° C; from tissue; host or cells: gastrocnemius skeletal muscle (A22) and liver (A24) of Lepr db/db mice
Experimental: Male Lepr^db/db mice (C57BL/6J strain, purchased from The Jackson Laboratory) at postnatal day 38 were intraperitoneally injected daily with physiological saline ([…]) containing 0.2% DMSO, or 0.136 mg of Compound #43 per kilogram body weight, diluted in the sterile physiological saline) for 52 days. After the treatment, gastrocnemius skeletal muscle and liver samples were collected and stored at −80° C.
Frozen skeletal muscle and liver tissues were minced in sterile ice-old PBS containing complete proteinase and phosphatase inhibitors (Thermo-Fisher Scientific, Waltham, Mass.) and subjected to homogenization using a tissue homogenizer (Thermo-Fisher Scientific, Waltham, Mass.). These tissue homogenates were diluted in Themo-Fisher's premade RIPA buffer (1 part homogenate/2 part of RIPA buffer) containing complete proteinase/phosphatase inhibitors to extract the proteins. Proteins in the homogenates were extracted in RIPA buffer at 4° C. overnight. These overnight-extracted protein/tissue lysates were centrifuged at 12000×g for 30 min at 4° C., and the protein levels in the supernatant of these tissue lysates were determined using the Pierce Micro-BCA protein assay kit (Thermo Scientific-Piece Biotechnology, Rockford, Ill.) according to the manufacturer's protocol. […]

[1] = Body weight, gross morphology and walking behavior of treated Lepr^db/db mice; assay type: in vivo
Experimental: Body weights of the above treated mice were recorded daily using a balance and any visible abnormal animal gross morphology and walking behavior were monitored daily. After the treatments, animals were fasted overnight and then subjected to blood glucose or HbA1c assays, glucose tolerance tests or tissue collections.
After the treatments for 43 days, animals were fasted overnight and then subjected to blood glucose and glucose tolerance tests. After daily treatments of these compounds for 90 days, sera from these animals were collected and then subjected to blood HbA1c assays.

H4IIE cells = assay: Cell viability (CellTiter96 AQueous One) in H4IIE cells; assay type: cell-based, rat; conditions: tested doses
Experimental: After the above treatments, 50 μl of culture media were collected, and subjected to glucose analysis using Molecular Probes Amplex Red glucose assay kit (Cat #A22189) according to the manufacturer's protocol. Cell numbers or viability in the culture plate after the above compound treatments were determined using Promega's CellTiter96® AQueous One Solution Cell Proliferation Assay kits, according to the manufacturer's protocol and instructions. In brief, after removing 50 μl of culture media for glucose assay, cells were incubated with AQueous One solution (25 μl stock solution and 50 μl prewarmed PBS/per well) at 37° C. for 1 hour, and the absorbance of OD490 nm in each sample was determined by the Bio-Tek microplate reader. Cell viability in culture wells were determined by the subtraction of OD490 nm in cultured cells with the OD490 nm in plain culture media (without seeding of cells). Glucose production in the culture cells were obtained by normalizing the glucose concentration in culture media by cell viability in each well. At least 3 samples per each treatment were examined for the above analysis. Data are presented as Mean±SEM of those samples. Experiments were repeated at least twice.

[2] = 25 μg selenium/kg ip daily for 43 days from 41 days of age (FIG. 5)
[3] = 25 μg selenium/kg ip daily, 3 months (FIG. 4)

T1 sequence (P15208 753-1372 limits assumed): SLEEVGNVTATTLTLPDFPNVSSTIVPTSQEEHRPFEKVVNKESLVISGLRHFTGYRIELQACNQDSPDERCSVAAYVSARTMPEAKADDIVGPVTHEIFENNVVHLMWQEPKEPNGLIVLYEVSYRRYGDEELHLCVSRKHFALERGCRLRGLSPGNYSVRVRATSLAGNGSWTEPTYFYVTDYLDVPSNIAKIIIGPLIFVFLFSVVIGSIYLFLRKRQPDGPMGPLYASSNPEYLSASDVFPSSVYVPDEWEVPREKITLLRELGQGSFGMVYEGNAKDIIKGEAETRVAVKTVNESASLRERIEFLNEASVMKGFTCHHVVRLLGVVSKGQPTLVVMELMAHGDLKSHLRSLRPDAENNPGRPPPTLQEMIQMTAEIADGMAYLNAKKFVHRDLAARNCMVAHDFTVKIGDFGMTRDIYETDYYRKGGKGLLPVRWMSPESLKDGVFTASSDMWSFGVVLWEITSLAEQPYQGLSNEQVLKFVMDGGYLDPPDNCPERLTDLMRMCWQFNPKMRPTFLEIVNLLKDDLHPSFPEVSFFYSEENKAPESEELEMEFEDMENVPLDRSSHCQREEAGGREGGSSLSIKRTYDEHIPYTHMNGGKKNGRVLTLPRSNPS
T1 sequence (P15208 28-748 partner limits assumed): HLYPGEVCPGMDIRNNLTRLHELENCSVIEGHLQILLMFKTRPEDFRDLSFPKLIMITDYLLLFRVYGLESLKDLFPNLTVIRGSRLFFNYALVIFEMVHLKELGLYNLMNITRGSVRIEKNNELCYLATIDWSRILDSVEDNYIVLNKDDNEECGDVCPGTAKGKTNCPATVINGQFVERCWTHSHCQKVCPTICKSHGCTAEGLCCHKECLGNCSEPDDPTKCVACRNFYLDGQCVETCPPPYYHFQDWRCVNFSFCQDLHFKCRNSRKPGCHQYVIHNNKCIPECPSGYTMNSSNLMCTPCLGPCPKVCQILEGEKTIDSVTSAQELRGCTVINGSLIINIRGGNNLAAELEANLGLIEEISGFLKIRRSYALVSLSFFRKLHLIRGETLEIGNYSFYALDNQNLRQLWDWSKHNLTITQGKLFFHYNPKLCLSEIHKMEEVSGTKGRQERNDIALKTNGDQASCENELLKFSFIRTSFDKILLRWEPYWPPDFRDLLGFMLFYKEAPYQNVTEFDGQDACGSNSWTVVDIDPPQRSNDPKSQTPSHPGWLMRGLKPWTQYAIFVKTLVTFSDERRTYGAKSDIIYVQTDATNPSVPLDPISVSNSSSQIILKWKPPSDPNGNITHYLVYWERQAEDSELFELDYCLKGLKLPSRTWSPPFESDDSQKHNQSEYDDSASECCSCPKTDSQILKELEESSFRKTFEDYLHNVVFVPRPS

Q: With `C[Se]C[C@H]1O[C@@H](n2cnc3c(N)ncnc32)C(OC(C)=O)C1OC(C)=O` (some centres unmarked) [Compound #43, Adenosine, 5′-Se-methyl-5′-selino-, 2′,3′-diacetate] as the compound, how does the “effect on fasting blood glucose levels” value (Lepr^db/db mice; 25 μg selenium or sulfur/kg ip daily, 3 months (FIG. 4)) read?
A: statistically significant decrease in fasting blood glucose levels

Q: What about the “decrease in fasting blood glucose levels vs saline” value (Lepr^db/db mice; [2]) of the same compound?
A: ~35%

Q: What about the “fasting blood glucose levels” value (Lepr^db/db mice; [2]) of the same compound?
A: 188 mg/dL

Q: What about the “effect on HbA1c levels” value (Lepr^db/db mice; 25 μg selenium/kg ip daily for 90 days from 41 days of age (FIG. 5)) of the same compound?
A: significant decrease of HbA1c levels

Q: What about the “reduction in serum HbA1c levels compared to saline” value (Lepr^db/db mice; 25 μg selenium/kg ip daily from day 38, measured at 90 days of age (FIG. 3)) of the same compound?
A: ~20%

Q: And the “reduction of fasting blood glucose levels compared to controls” value (Lepr^db/db mice; 25 μg selenium/kg ip daily from day 38, measured at day 81 (FIG. 3))?
A: about 45%

Q: What about the “decrease of blood HbA1c levels compared to saline” value (Lepr^db/db mice; [3]) of the same compound?
A: about 30%

Q: And the fasting glucose levels (Lepr^db/db mice; [3])?
A: about 135 mg/dL

Q: And the “increase of phosphorylated Insrβ (Tyrosine 1146) in skeletal muscle” value (Insrβ; 52 days (FIG. 20B))?
A: ~2.5 fold

Q: And the “total Insrβ protein levels in skeletal muscle” value (Insrβ; 52 days (FIG. 20C))?
A: no significant change of total Insrβ protein levels

Q: And the “overt toxic effects (morphology, walking behavior, body weight)” value ([1]; 25 μg selenium or sulfur/kg ip daily, 3 months)?
A: no overt toxic effects

Q: What about the “overt toxic effects (morphology, walking behavior, body weight)” value ([1]; 25 μg selenium/kg ip daily, 90 days, from 41 days of age) of the same compound?
A: no overt toxic effects

Q: And the “visible toxic effects on gross morphological and walking behavior” value ([1]; acute single ip injection, 0.0054-5.4 mg/kg)?
A: did not cause any visible toxic effects

Q: And the “toxic effect on cell viability” value (H4IIE cells)?
A: No toxic effect

Source: patent US11613552B2, “Pharmaceutical agents, compositions, and methods relating thereto” (Alltech, Inc., priority 2017, dated 2023)
